Activity calls are given as the source filed them. How the calls were made is not given here.
Key:
Assay in all cases: mouse tissue hydrolase off-target profiling – ABPP MudPIT, LC-MS, ABHD6 analysis, in vivo study for DAGLb inhibitor project, late-stage follow-up (AID 602351)
[1] = tested on: Prcp; conditions: serine hydrolase spectral counts, stronger effect = lower value
[2] = tested on: Abhd12; conditions: serine hydrolase spectral counts, stronger effect = lower value
[3] = tested on: Pafah1b3; conditions: serine hydrolase spectral counts, stronger effect = lower value
[4] = target: Monoacylglycerol lipase ABHD6 (Mus musculus) (UniProt Q8R2Y0); conditions: serine hydrolase spectral counts, stronger effect = lower value
Sequence of Monoacylglycerol lipase ABHD6 (Mus musculus) (Q8R2Y0 whole entry, looked up): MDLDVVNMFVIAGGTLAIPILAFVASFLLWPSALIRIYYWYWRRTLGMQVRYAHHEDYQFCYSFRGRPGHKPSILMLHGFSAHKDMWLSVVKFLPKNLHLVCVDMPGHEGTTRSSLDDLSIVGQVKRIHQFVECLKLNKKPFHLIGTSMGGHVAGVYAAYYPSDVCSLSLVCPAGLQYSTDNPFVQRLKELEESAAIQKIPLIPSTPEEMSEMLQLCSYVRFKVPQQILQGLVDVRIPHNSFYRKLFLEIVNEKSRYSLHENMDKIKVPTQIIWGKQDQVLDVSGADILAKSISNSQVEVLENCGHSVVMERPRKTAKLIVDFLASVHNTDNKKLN

[5] = target: Acyl-protein thioesterase 1 (Mus musculus) (UniProt P97823); conditions: serine hydrolase spectral counts
Sequence of Acyl-protein thioesterase 1 (Mus musculus) (P97823 whole entry, looked up): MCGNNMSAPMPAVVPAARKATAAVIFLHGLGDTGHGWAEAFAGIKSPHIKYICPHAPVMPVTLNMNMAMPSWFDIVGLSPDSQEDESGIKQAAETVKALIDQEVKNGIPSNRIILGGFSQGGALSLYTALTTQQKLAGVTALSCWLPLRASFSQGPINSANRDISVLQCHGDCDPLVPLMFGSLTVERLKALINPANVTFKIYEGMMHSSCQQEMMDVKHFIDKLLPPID

[6] = tested on: Tpp2; conditions: serine hydrolase spectral counts, stronger effect = lower value
[7] = tested on: KIAA1363; conditions: serine hydrolase spectral counts, stronger effect = lower value
[8] = tested on: Abhd11; conditions: serine hydrolase spectral counts, stronger effect = lower value
[9] = tested on: Prepl; conditions: serine hydrolase spectral counts, stronger effect = lower value
[10] = tested on: Dpp9; conditions: serine hydrolase spectral counts, stronger effect = lower value
[11] = tested on: Iah1; conditions: serine hydrolase spectral counts, stronger effect = lower value
[12] = tested on: Apeh; conditions: serine hydrolase spectral counts, stronger effect = lower value
[13] = target: Diacylglycerol lipase-beta (Mus musculus) (UniProt Q91WC9); conditions: serine hydrolase spectral counts, Daglb, stronger effect = lower value
Sequence of Diacylglycerol lipase-beta (Mus musculus) (Q91WC9 whole entry, looked up): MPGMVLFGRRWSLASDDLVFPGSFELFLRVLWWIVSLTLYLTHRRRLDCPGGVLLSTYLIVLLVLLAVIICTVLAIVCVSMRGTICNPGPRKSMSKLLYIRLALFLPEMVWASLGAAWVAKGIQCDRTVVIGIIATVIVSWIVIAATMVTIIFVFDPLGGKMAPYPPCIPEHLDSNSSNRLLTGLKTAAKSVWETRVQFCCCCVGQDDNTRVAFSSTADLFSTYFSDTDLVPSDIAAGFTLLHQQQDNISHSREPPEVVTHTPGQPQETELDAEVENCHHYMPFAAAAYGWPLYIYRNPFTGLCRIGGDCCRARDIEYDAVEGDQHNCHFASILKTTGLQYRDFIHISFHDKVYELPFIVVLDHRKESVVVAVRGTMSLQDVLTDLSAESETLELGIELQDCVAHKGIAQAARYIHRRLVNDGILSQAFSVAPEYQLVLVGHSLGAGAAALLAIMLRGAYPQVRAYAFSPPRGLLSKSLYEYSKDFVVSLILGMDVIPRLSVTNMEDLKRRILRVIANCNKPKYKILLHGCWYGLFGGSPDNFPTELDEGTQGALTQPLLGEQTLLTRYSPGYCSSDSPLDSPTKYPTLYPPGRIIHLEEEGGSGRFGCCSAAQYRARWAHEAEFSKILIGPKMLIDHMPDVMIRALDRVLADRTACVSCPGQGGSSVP

[14] = tested on: Pla2g15; conditions: serine hydrolase spectral counts, stronger effect = lower value
[15] = tested on: Fam108b; conditions: serine hydrolase spectral counts, stronger effect = lower value
[16] = tested on: Acot1; conditions: serine hydrolase spectral counts, stronger effect = lower value
[17] = tested on: Lipa; conditions: serine hydrolase spectral counts, stronger effect = lower value
[18] = target: Palmitoyl-protein thioesterase ABHD10, mitochondrial (Mus musculus) (UniProt Q6PE15); conditions: serine hydrolase spectral counts, stronger effect = lower value
Sequence of Palmitoyl-protein thioesterase ABHD10, mitochondrial (Mus musculus) (Q6PE15 whole entry, looked up): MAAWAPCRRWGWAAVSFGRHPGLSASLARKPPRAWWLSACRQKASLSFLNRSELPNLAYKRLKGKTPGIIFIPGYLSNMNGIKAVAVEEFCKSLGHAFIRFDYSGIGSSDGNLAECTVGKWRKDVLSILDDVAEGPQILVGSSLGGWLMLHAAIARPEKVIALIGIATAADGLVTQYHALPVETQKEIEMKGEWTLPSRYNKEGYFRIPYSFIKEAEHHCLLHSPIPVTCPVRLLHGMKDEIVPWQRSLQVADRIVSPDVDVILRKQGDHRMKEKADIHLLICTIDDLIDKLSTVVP

[19] = tested on: Fasn; conditions: serine hydrolase spectral counts, stronger effect = lower value
[20] = tested on: Ctsa; conditions: serine hydrolase spectral counts, stronger effect = lower value
[21] = tested on: Pafah1b2; conditions: serine hydrolase spectral counts, stronger effect = lower value
[22] = tested on: Magl; conditions: serine hydrolase spectral counts, stronger effect = lower value
[23] = tested on: Ctsg; conditions: serine hydrolase spectral counts, stronger effect = lower value
[24] = tested on: Pnpla6; conditions: serine hydrolase spectral counts, stronger effect = lower value
[25] = tested on: Aoah; conditions: serine hydrolase spectral counts, stronger effect = lower value
[26] = tested on: Pnpla7; conditions: serine hydrolase spectral counts, stronger effect = lower value
[27] = tested on: Dpp7; conditions: serine hydrolase spectral counts, stronger effect = lower value
[28] = tested on: Dpp4; conditions: serine hydrolase spectral counts, stronger effect = lower value
[29] = tested on: Ppt2; conditions: serine hydrolase spectral counts, stronger effect = lower value
[30] = tested on: Acot2; conditions: serine hydrolase spectral counts, stronger effect = lower value
[31] = tested on: Lpl; conditions: serine hydrolase spectral counts, stronger effect = lower value
[32] = tested on: Gzma; conditions: serine hydrolase spectral counts, stronger effect = lower value
[33] = target: Platelet-activating factor acetylhydrolase (Mus musculus) (UniProt Q60963); conditions: serine hydrolase spectral counts
Sequence of Platelet-activating factor acetylhydrolase (Mus musculus) (Q60963 whole entry, looked up): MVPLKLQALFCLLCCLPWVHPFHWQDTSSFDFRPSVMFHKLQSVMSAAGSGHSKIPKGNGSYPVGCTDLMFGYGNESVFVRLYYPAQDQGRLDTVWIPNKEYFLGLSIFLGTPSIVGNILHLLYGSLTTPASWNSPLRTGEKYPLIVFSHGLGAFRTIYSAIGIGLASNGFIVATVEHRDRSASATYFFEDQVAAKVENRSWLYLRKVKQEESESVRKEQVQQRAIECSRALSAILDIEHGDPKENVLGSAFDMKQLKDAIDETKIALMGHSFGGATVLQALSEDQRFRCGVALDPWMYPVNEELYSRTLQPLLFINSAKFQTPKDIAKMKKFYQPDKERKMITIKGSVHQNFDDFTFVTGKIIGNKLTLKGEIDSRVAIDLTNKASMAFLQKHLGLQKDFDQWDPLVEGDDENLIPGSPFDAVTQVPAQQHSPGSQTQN

[34] = tested on: Elane; conditions: serine hydrolase spectral counts, stronger effect = lower value
[35] = tested on: Lypla2; conditions: serine hydrolase spectral counts, stronger effect = lower value
[36] = target: Platelet-activating factor acetylhydrolase 2, cytoplasmic (Mus musculus) (UniProt Q8VDG7); conditions: serine hydrolase spectral counts
Sequence of Platelet-activating factor acetylhydrolase 2, cytoplasmic (Mus musculus) (Q8VDG7 whole entry, looked up): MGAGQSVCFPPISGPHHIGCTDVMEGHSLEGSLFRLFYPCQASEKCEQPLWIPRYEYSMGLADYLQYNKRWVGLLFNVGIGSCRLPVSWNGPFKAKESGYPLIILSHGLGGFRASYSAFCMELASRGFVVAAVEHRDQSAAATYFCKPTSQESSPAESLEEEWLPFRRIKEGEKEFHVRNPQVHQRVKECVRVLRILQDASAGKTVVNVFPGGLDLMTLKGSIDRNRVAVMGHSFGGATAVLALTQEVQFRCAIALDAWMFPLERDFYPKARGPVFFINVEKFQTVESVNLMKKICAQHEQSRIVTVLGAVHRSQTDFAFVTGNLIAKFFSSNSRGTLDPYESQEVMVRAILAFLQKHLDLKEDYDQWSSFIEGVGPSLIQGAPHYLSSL

[37] = tested on: Dpp8; conditions: serine hydrolase spectral counts, stronger effect = lower value
[38] = tested on: Lipe; conditions: serine hydrolase spectral counts, stronger effect = lower value
[39] = significance of hydrolase inhibition

spectral counts, test compound [1]: 99.7 (inactive)
p value vs vehicle [1, 39]: 0.659
spectral counts, test compound [2]: 24.3 (inactive)
p value vs vehicle [2, 39]: 0.363
spectral counts, test compound [3]: 21.7 (inactive)
p value vs vehicle [3, 39]: 0.409
spectral counts, test compound [4]: 0.667
p value vs vehicle [4, 39]: 0.006
spectral counts, test compound ([5]; Lypla1, stronger effect = lower value): 51.7 (inactive)
p value vs vehicle ([5]; Lypla1, significance of hydrolase inhibition, stronger effect = lower value): 0.676
spectral counts, test compound [6]: 21 (inactive)
p value vs vehicle [6, 39]: 0.018
spectral counts, test compound [7]: 167 (inactive)
p value vs vehicle [7, 39]: 0.699
spectral counts, test compound [8]: 6.67 (inactive)
p value vs vehicle [8, 39]: 0.422
spectral counts, test compound [9]: 4.33 (inactive)
p value vs vehicle [9, 39]: 0.101
spectral counts, test compound [10]: 62 (inactive)
p value vs vehicle [10, 39]: 0.978
spectral counts, test compound [11]: 5.67 (inactive)
p value vs vehicle [11, 39]: 0.442
spectral counts, test compound [12]: 148 (inactive)
p value vs vehicle [12, 39]: 0.187
spectral counts, test compound [13]: 13.7 (inactive)
p value vs vehicle [13, 39]: 0.28
spectral counts, test compound [14]: 29 (inactive)
p value vs vehicle [14, 39]: 0.012
spectral counts, test compound [15]: 13.7 (inactive)
p value vs vehicle [15, 39]: 0.018
spectral counts, test compound [16]: 25.7 (inactive)
p value vs vehicle [16, 39]: 0.22
spectral counts, test compound [17]: 3 (inactive)
p value vs vehicle [17, 39]: 0.482
spectral counts, test compound [18]: 13.3 (inactive)
p value vs vehicle [18, 39]: 0.911
spectral counts, test compound [19]: 75.7 (inactive)
p value vs vehicle [19, 39]: 0.026
spectral counts, test compound [20]: 86.7 (inactive)
p value vs vehicle [20, 39]: 0.035
spectral counts, test compound [21]: 28.3 (inactive)
p value vs vehicle [21, 39]: 0.6
spectral counts, test compound [22]: 18 (inactive)
p value vs vehicle [22, 39]: 0.937
spectral counts, test compound [23]: 36.3 (inactive)
p value vs vehicle [23, 39]: 0.101
spectral counts, test compound [24]: 4 (inactive)
p value vs vehicle [24, 39]: 0.028
spectral counts, test compound [25]: 14.7 (inactive)
p value vs vehicle [25, 39]: 0.53
spectral counts, test compound [26]: 34 (inactive)
p value vs vehicle [26, 39]: 0.656
spectral counts, test compound [27]: 16.3 (inactive)
p value vs vehicle [27, 39]: 0.826
spectral counts, test compound [28]: 42 (inactive)
p value vs vehicle [28, 39]: 0.1
spectral counts, test compound [29]: 5.67 (inactive)
p value vs vehicle [29, 39]: 0.451
spectral counts, test compound [30]: 41.7 (inactive)
p value vs vehicle [30, 39]: 0.041
spectral counts, test compound [31]: 58.3 (inactive)
p value vs vehicle [31, 39]: 0.211
spectral counts, test compound [32]: 5.33 (inactive)
p value vs vehicle [32, 39]: 0.275
spectral counts, test compound ([33]; Pla2g7, stronger effect = lower value): 17.7 (inactive)
p value vs vehicle ([33]; Pla2g7, significance of hydrolase inhibition, stronger effect = lower value): 0.115
spectral counts, test compound [34]: 28.3 (inactive)
p value vs vehicle [34, 39]: 0.242
spectral counts, test compound [35]: 89.3 (inactive)
p value vs vehicle [35, 39]: 0.688
spectral counts, test compound ([36]; Pafah2, stronger effect = lower value): 16 (inactive)
p value vs vehicle ([36]; Pafah2, significance of hydrolase inhibition, stronger effect = lower value): 0.202
spectral counts, test compound [37]: 31 (inactive)
p value vs vehicle [37, 39]: 0.639
spectral counts, test compound [38]: 39.7 (inactive)
p value vs vehicle [38, 39]: 0.014
Compound: COc1ccc(-c2ccc(-c3cn(C(=O)N4CCCCC4c4ccccc4)nn3)cc2)cc1 (stereo unspecified)
